Test results as given in PMC7703437, “In Vitro Hepatic Metabolism of Curcumin Diethyl Disuccinate by Liver S9 from Different Animal Species” (Frontiers in Pharmacology, 2020).

Key:
[1] = tested on: rat LS9 (RLS9; Sprague–Dawley); experiment: In vitro metabolism profiling of CDD in rat liver S9 (1 mg/ml); type: in vitro ADME
Description: (§1) The metabolism profiles of CDD were investigated against HLS9, MLS9, DLS9, and RLS9. A stock solution of CDD was prepared at 150 µM in 50% acetonitrile in water before use. The metabolism study was initiated by spiking 735 µl of preincubated LS9 with 15 µl of CDD stock solution, and the mixture was subsequently incubated at 37°C. The final concentrations of CDD and LS9 were 3 μM and 1 mg/ml, respectively. A 50-µl aliquot from the mixture was collected at 0.5, 1, 2, 3, 4, 5, 10, 15, 30, 45, 60, 90, and 120 min and immediately mixed with 100 µl of ice-cold acetonitrile containing 0.45 µM of internal standard DMC to terminate the metabolic reaction. […] The sample at the initial time point (0 min) was prepared as the other samples, except that heat-inactivated HLS9, MLS9, DLS9, and RLS9 (80°C for 20 min; 1 mg/ml protein) were used.
(§2) The UHPLC system consisted of an Agilent series 1290 quaternary pump with an online degasser, autosampler, column oven, and diode array detector. The mobile phase was composed of (A) 0.1% (v/v) formic acid in acetonitrile and (B) 0.1% (v/v) formic acid in water. Each solution was filtered through a nylon filter (pore size, 0.22 µm; MS® Membrane Filters; Membrane Solutions, United States) before use. The mobile phase flow rate was kept at 1.2 ml/min in a gradient mode using the following elution program: 0–3.0 min, initial A-B (40:60, v/v); 4.5–7.0 min, isocratic elution A-B [50:50, (v/v); 8.5–11.0 min, isocratic elution A-B (60:40, v/v); and 12.0–17.0 min, isocratic elution A-B (40:60, v/v)]. CDD, curcumin, and MSCUR in the supernatant were partitioned using a C8 column (4.6 mm × 50 mm, 2.7 µm; HALO, Advanced Materials Technology, United States) with reference to DMC. The detection wavelength was set at 400 nm (λ max(CDD) = 400 nm, λ max(curcumin) = 427 nm, λ max(MSCUR) = 418 nm, and λ max(DMC) = 421 nm). The column was maintained at 35°C throughout the run, and the supernatant injection volume was set at 20 µl.
(§3) The concentrations of CDD, curcumin, and MSCUR in the supernatant were determined from the standard plots, which were prepared by spiking individual working solutions of the compounds to heat-inactivated HLS9, MLS9, DLS9, and RLS9 ([Alcorn et al., 2007]; [Montoro-Garcia et al., 2009]; [Singh et al., 2010]). These working standards were extracted with 100 µl of ice-cold acetonitrile containing 0.45 µM of DMC and then 120 μl of the supernatant was diluted with 40 μl of water prior to the UHPLC analysis. The peak area ratios of CDD, curcumin, and MSCUR to the internal standard were computed against linear concentration ranges of 0.025–4.5 µM CDD, 0.025–4.5 µM curcumin, and 0.0125–0.75 µM MSCUR, respectively, with the coefficient of determination (r^2) values greater than 0.99.
(§4) The percent content of CDD and the metabolites formed upon its incubation with LS9, namely, curcumin and MSCUR, was plotted against incubation time.
(§5) The following equations were adopted to describe the changes in CDD and MSCUR content over time (t): A = A0e^−k1t (2) B= k1A0/k2−k1(e^−k1t−e^−k2t), (3) where A0 is the CDD concentration at time 0, k 1 is the degradation rate constant of CDD, and k 2 is the degradation rate constant of MSCUR. k 1 and k 2 were determined by using Eqs. 2 and 3, respectively, with nonlinear regression analysis using the SOLVER function of Microsoft Excel for Office 365 MSO (16.0.12527.20986) ([Brown, 2001]). The half-life (t 1/2) was calculated using Eq. 4: t1/2=0.693/k (4)
(§6) The in vitro intrinsic clearance (CLint,in vitro) of CDD and MSCUR in LS9 was calculated using Eq. 5: CLint, in vitro= k × [V]incubation(ml)/[P]incubation(mg protein), (5) where [V]incubation is the incubation volume in ml, and [P]incubation is the amount of LS9. […]

[2] = as above; type: in vitro ADME, rat (Sprague–Dawley); details: Sprague-Dawley, liver S9; rat LS9 1 mg/ml; read-out: t 1/2 (CDD)
Description: as §1, §2, §3, §4, §5, §6

[3] = tested on: LS9 from all tested species (HLS9, MLS9, DLS9, RLS9); experiment: In vitro metabolism profiling of CDD, statements for LS9 from all tested species; type: in vitro ADME, human, monkey, dog, rat; details: within the first 15 min of incubation, LS9 1 mg/ml from all tested species, CDD 3 µM
Description: as §1, §2
(§7) The concentrations of CDD, curcumin, and MSCUR in the supernatant were determined from the standard plots, which were prepared by spiking individual working solutions of the compounds to heat-inactivated HLS9, MLS9, DLS9, and RLS9 ([Alcorn et al., 2007]; [Montoro-Garcia et al., 2009]; [Singh et al., 2010]). […]
(§8) The following equations were adopted to describe the changes in CDD and MSCUR content over time (t): A = A0e^−k1t (2) B= k1A0/k2−k1(e^−k1t−e^−k2t), (3) where A0 is the CDD concentration at time 0, k 1 is the degradation rate constant of CDD, and k 2 is the degradation rate constant of MSCUR. k 1 and k 2 were determined by using Eqs. […] The half-life (t 1/2) was calculated using Eq. 4: t1/2=0.693/k (4)

[4] = as above; type: in vitro ADME, human, monkey, dog, rat; details: beagle (dog); Sprague-Dawley (rat), human, monkey, dog, rat, liver S9 (LS9); all LS9s; read-out: t 1/2 of CDD
Description: as §1, §2, §7, §8

CCOC(=O)CCC(=O)Oc1ccc(/C=C/C(=O)/C=C(O)/C=C/c2ccc(OC(=O)CCC(=O)OCC)c(OC)c2)cc1OC [CDD, curcumin diethyl disuccinate]
CLint, in vitro(CDD) ([1]; rat LS9): 0.68 ± 0.13 ml min^−1 mg protein^−1 | k 1 (CDD) ([1]; rat LS9 1 mg/ml, CDD 3 µM, 37°C): 0.68 ± 0.13 min⁻¹ | CLint, in vivo(CDD) ([1]; rat, scaled from CLint,in vitro with physiologically based scaling factors): 197.51 ± 37.52 L/h/kg | CLint, in vivo total ([1]; rat, sum of CLint,in vivo(CDD) and CLint,in vivo(MSCUR)): 3,002.88 ± 180.63 L h^−1 kg^−1 | CLH (predicted hepatic clearance) ([1]; rat, well-stirred model, QH 70 ml min^−1 kg^−1, fup 0.0594): 4.10 ± 5.77 × 10^–3 L h^−1 kg^−1 | half-life at 3 µM [2]: 1.04 ± 0.18 min | CDD hydrolyzed [3]: more than 95% | half-life at 3 µM [4]: < 1.04 min
